{
  "source": "paper PMC12055592",
  "about": "“Post-symptomatic NLRP3 inhibition rescues cognitive impairment and mitigates amyloid and tau driven neurodegeneration” (Npj Dementia, 2025)",
  "key": {"[1]": {"tested_on": "TNFα in iPSC-derived microglia", "experiment": "iPSC-derived microglia in vitro assay, secreted TNFα (specificity)", "format": "cell-based", "conditions": "for pIC50: Microglia", "method": "iPSC-derived microglia (BX-0900, BrainXell, Madison, WI) were thawed and recovered as per the supplier’s instructions. Briefly, viable cells were counted post-thaw using Trypan Blue, 0.4% (Thermo Fisher Scientific) and 25,000 cells were seeded on poly-d-lysine coated 96-well plates in DMEM-F/12 medium (Thermo Fisher Scientific) supplemented with 1X B-27 supplement (Thermo Fisher Scientific), 1X N-2 supplement (Thermo Fisher Scientific), 1X Non-essential amino acids (Thermo Fisher Scientific), 1X Chemically defined lipid mix (Thermo Fisher Scientific), 1 mM GlutaMax (Thermo Fisher Scientific), 0.2 mM Ascorbic Acid (Millipore), 100 ng/mL IL-34 (PeproTech, Cranbury, NJ), 2 ng/mL TGF-β1 (PeproTech) and 20 ng/mL M-CSF (PeproTech). Fresh media was added 3 days after seeding, half of which was replenished with fresh media 6 days following seeding. The assay was performed 7 days after cells were seeded in 96-well plates. Two assay protocol variations were performed: cells were either pre-treated with VEN-02XX to block NLRP3 inflammasome formation and then primed with LPS (Fig. 1, D. Compound added before LPS priming) or were primed with LPS and then treated with VEN-02XX (Fig. 1, D. Compound added after LPS priming). For compound treatment, cells were treated with VEN-02XX for 1 h (top concentration 100 µM; 3-fold titration) to block NLRP3 inflammasome formation. For LPS priming, cells were primed with 100 ng/mL LPS (E.coli O26:B6, Millipore) for 4 h. At the end of either protocol, cells were stimulated with 10 uM Nigericin (Millipore) for 1 h, after which conditioned media was collected for analysis of secreted IL-1β, IL-18 and TNFα in an electrochemiluminescence immunoassay (Mesoscale Discovery)."}, "[2]": {"tested_on": "NLRP3 inflammasome, IL-1β release in human PBMCs", "experiment": "PBMC in vitro assay (LPS priming, nigericin, secreted IL-1β)", "format": "cell-based", "method": "Cryopreserved human PBMCs (iXCells Biotechnologies, San Diego, CA) were rapidly thawed and incubated overnight at 37 °C with 5% CO2 in Complete Media: RPMI 1640 medium (ATCC modification, Thermo Fisher Scientific) supplemented with 10% Fetal bovine serum (FBS, Thermo Fisher Scientific) and 1% Penicillin-Streptomycin (Thermo Fisher Scientific). The next day, cells were centrifuged (300 × g, 5 min), resuspended in Assay Media (Complete Media without FBS) and plated at 33,333 cells/well in a 96-well cell culture plate. PBMCs were then primed with 100 ng/ml LPS (E. coli O26:B6) for 4 h. Following LPS priming, PBMCs were incubated with VEN-02XX pre-diluted in assay media with 0.8% DMSO, for 30 min (top concentration 100 µM; 4-fold titration). Following drug incubation, PBMCs were stimulated with 10 µM Nigericin (Millipore-Sigma, Burlington, MA) for an additional 60 min, after which conditioned media was collected for analysis of secreted IL-1β in an electrochemiluminescence immunoassay (Mesoscale Discovery)."}, "[3]": {"experiment": "Mouse pharmacokinetic study, 7 days oral dosing, blood", "format": "in vivo", "conditions": "WT mice", "method": "Male C57Bl/6 mice (weight 20–30 g, age 6–8 weeks old) were obtained from Charles River Laboratories Canada, and acclimated for 5 days before the study. Three animals were dosed by oral gavage during 7 days with 20 mg/kg of VEN-02XX suspended in 0.5% w/v methylcellulose/0.2% w/v Tween 80, at a dose volume of 10 mL/kg. Food and water were available ad libitum to all animals. On day 7, serial blood samples were collected from a tail snip at 0.25, 0.5, 1, 2, 4, 6, and 24 h post-dose, and […] of blood was added to a micro tube racked system pre-filled with […] of 10 mM sodium citrate buffer (final blood/buffer ratio 1:3, or dilution factor of 4). The plate was stored at −20 °C until LC-MS/MS analysis.\nConcentrations of VEN-02XX in plasma and brain were determined by a LC-MS/MS assay. The plasma samples were thawed at room temperature and 20 μL aliquot of each sample was added to a 1.2 mL deep 96-well plate containing 20 µL ACN. The standard curve was prepared by making different dilutions in ACN. A 20 µL standard solution at each concentration was added into a 96-deepwell plate, followed by addition of 20 µL blank plasma or brain homogenate. Then, 200 μL of an internal standard mixture (5 ng/mL Glyburide and Loperamide in ACN) was added to each sample. The plates were vortexed and centrifuged at 4000 rpm for 10 min at 4 °C; 70 μL of the supernatant was diluted with 140 μL of water, and 10 μL of the solution was injected onto an analytical column. A Shimadzu UPLC system coupled with a SCIEX 4500 mass spectrometer (AB Sciex, Foster City, CA) was used for sample analysis. The mobile phase A was 0.1% FA in water and mobile phase B was 0.1% FA in 1/5 IPA/ACN. The gradient started at 10% B, held for 0.2 min and increased to 95% B in 1.3 min, maintained at 95% B for 0.7 min, and then decreased to 10% B within 0.01 min. The total flow rate was 0.5 mL/min, and samples were injected onto an Acquity UPLC BEH C18 (2.1 mm × 5 cm, 2.3 u) analytical column with a total run time of 2.5 min. Data were acquired using multiple reactions monitoring (MRM) in positive ion electrospray mode with an operating source temperature of 400 °C. Two transitions were monitored for VEN-02XX and the more sensitive transition with less interference (397.1 –> 270.1) was used for quantification.\nPharmacokinetic parameters were determined by non-compartmental analysis using WinNonLin software (Phoenix^TM, version 8.3), and the following parameters were calculated from the plasma concentrations versus time data: T1/2, Cmax, Tmax, AUCinf, AUClast. When appropriate, the brain Kp was calculated as AUClast(brain)/AUClast(plasma). Free brain partition coefficient (Kpuu) was calculated using the free fraction in plasma and brain measured in a high throughput equilibrium dialysis assay."}, "[4]": {"tested_on": "NLRC4", "experiment": "NLRC4 in vitro selectivity assay (THP1-Null2 cells, Needle-Tox, IL-1β)", "format": "cell-based", "conditions": "n = 2; top concentration 50 µM"}, "[5]": {"conditions": "male, C57Bl/6, mouse, whole blood, blood, 20 mg/kg PO QD for seven days"}},
  "note": "pIC50: −log10 of the molar value.",
  "data": [
    {"molecule": "CC(C)(O)CNc1nnc(-c2ccc(Cl)cc2C(F)(F)F)c2ccncc12", "note": "[VEN-02XX]", "values": [
      {"measurement": "pIC50", "setting": "[1]; compound added after LPS priming", "result": "< 5.00"},
      {"measurement": "pIC50", "setting": "[1]; compound added before LPS priming", "result": "< 4.52"},
      {"measurement": "TNFα inhibition in cellular assay", "setting": "[1]; specificity, in words", "result": "lack of TNFα inhibition"},
      {"measurement": "pIC50", "setting": "[2]; Homo sapiens, PBMC, geometric mean, n = 3, read-out: IL-1β inhibition (PBMCs) IC50", "result": 6.46},
      {"measurement": "potency of NLRP3 inhibition in PBMC", "setting": "[2]; in words", "result": "sub-micromolar potency"},
      {"measurement": "NLRP3 inhibitory activity maintained by exposure", "setting": "[3]; 20 mg/kg PO once daily, 7 days", "result": "sufficient to maintain a 50% inhibitory activity of NLRP3 throughout the dosing schedule"},
      {"measurement": "AUC(0-inf)", "setting": "[3]; [5]", "result": 143, "unit": "µM·h"},
      {"measurement": "Cmax", "setting": "[3]; [5]", "result": 20.7, "unit": "µM"},
      {"measurement": "Tmax", "setting": "[3]; [5]", "result": 1, "unit": "h"},
      {"measurement": "half-life", "setting": "[3]; [5]", "result": 190, "unit": "min"},
      {"measurement": "block of IL-1β release downstream of NLRC4", "setting": "[4]", "result": "inability to block IL-1β release"}
    ]}
  ]
}
